Results reported in patent US11505556B2, “Halogenated derivatives of morphinans and uses thereof” (Xalud Therapeutics, Inc., priority 2017, dated 2022).

What was measured:
Mouse hepatocytes = test: Hepatocyte elimination of parent compound
[1] = system: surgical pain (paw incision), paw withdrawal threshold; test: Mouse paw incision model, morphine potentiation
Experimental: Manual testing with von Frey hairs was performed at the times indicated in the graphs. The animals were placed in individual Perspex boxes on a raised metal mesh for at least 40 min before the test. A series of graduated von Frey hairs (0.07, 0.16, 0.4, 0.6, and 1.0 g) were applied to the plantar surface of the left paw, in sequence. Each von Frey hair was applied 10 times on a one-sec-on-one-sec-off protocol, with each hair slightly bent. A paw withdrawal upon this hind-paw stimulation for a given von Frey hair registering 5 responses out of 10 trials was recorded the paw withdrawal threshold (PWT). A baseline PWT was determined each day for 3 days before surgery. […] In addition, the PWT was determined before dosing and 1, 2, and 4 hours after dosing.
In both cases, morphine was dosed at 1 mg/kg IP.

[2] = system: off-target screening panel; test: Off-target inhibition screening (whole panel); details: 10 μM test concentration, hit = inhibition at or above the 50% level
Source text: In addition to the animal studies presented above in Examples 1-9, the results of in vitro testing of several of the compounds (i.e., XT-203, XT-204, and XT-206 through XT-217) are shown in Table 5 and Table 6. […]. Nine additional compounds had two or fewer off-target hits in the screening. […] These compounds spanned all of the tested N-modification classes. […]. Thus, the medicinal chemistry approach taken in this series of fluorinated compounds can yield low off-target activity and longer metabolic lifetime while preserving TLR4 antagonism. It is appreciated that further development of compounds in this class, using techniques known to those skilled in the art, may yield additional compounds with desirable pharmacologic and toxicologic characteristics.

[3] = system: bone fracture pain, paw withdrawal threshold; test: Mouse bone fracture model, morphine potentiation
Source text: Male adult C57BL6 mice, 8-10 weeks old, were anaesthetized with isoflurane mixed with oxygen throughout the surgical procedure. Animals were placed on a thermo-blanket temperature control system. The left knee area was disinfected with povidone/iodine-soaked cotton. A 0.5 cm incision was made on the knee, exposing the front area of the knee. A 27-gauge sterile needle was inserted into the tibial bone medullar canal to secure the fractured bone. The left tibia bone was gently broken using a pair of cushioned pliers. A single dose of antibiotic (Amoxipen 100 mg/kg, IP) was administered for prevention of infection after surgery. The animal was placed in a temperature-controlled recovery chamber until fully awake before being placed in a plastic cage bedded with clean, soft sawdust, with food and water easily accessible. The condition of the animals was closely monitored and recorded. All compounds, dissolved in normal saline, were dosed intraperitoneally in a volume of 5 ml/kg. PWT testing, as described above, was performed at 1, 2, and 4 hours.
In both cases, morphine was dosed at 2 mg/kg IP.

[4] = system: TLR4 (LPS-stimulated NO production, BV-2 mouse microglia cell line); test: NO assay: inhibition of LPS-induced NO production in BV-2 microglia (iNOS cellular); type: cell-based; details: for inhibition of NO production from LPS-stimulated BV2 cells: FIGS. 8B to 8D
Source text: NO assay: Microglia are the resident cells of the innate immune system in the central nervous system, and TLR4 is primarily expressed by microglia rather than astrocytes or neurons in the CNS. Given this expression profile, the BV-2 mouse microglia cell line was used as the model system of microglia, as these cells recapitulate many of the responses of primary microglia with high fidelity. TLR4 activation induces the downstream production of the inflammatory factor NO, which contributes to the development of neuropathic pain and drug addiction. BV-2 murine microglia were grown in supplemented DMEM (including 10% FBS, 50 unit mL^−1 penicillin, 50 μg·mL^−1 streptomycin). BV-2 cells were detached from the flask by trypsin digestion when ˜80% confluence was reached. Cells were seeded at a density of 4×10^4 cells per well in 96-well plates. After overnight incubation, media was aspirated and changed to DMEM media without FBS. Cells were then treated with LPS (200 ng/ml) and different concentrations of the testing compounds. After 24 h treatment, 100 μL of supernatant media was removed after cells were treated for 24 h and added to flat black 96-well microfluor plates (Thermo Scientific, MA, USA). Subsequently, 10 μL of 2, 3-diaminonaphthalene (0.05 mg·mL^−1 in 0.62 M HCl) was added to each well and incubated for 15 min. The reaction was quenched by addition of 5 μL of 3 M NaOH and the plate was read on a Beckman Coulter DTX880 reader (Fullerton, Calif., USA) with excitation at 360 nm and emission at 430 nm.
N chain NTX: This experimentation involved an in vitro assay where mouse BV2 cells were treated with LPS, which results in the release of nitric oxide (NO). Blockade of TLR4 activity results in reduced NO production. Therefore, IC50 values were determined for test compounds that antagonize TLR4 activity. A series of test compounds were prepared, with different N-alkyl chains replacing the cyclopropyl methyl found in naltrexone. Cell viability was also measured by a standard assay, e.g., measurement of the release of cytoplasm-resident enzymes in the tissue culture supernatant or media to detect cell loss/lysis/rupture. A dose-inhibition curve was generated by testing the TLR4 antagonist compound for the ability to block LPS-stimulated iNOs induction. In FIG. 7, the inhibition levels across a range of doses are graphed, along with a regression curve. The IC50 value—50% inhibition level—is also provided, graphed against the length of the alkyl chain. Note that with longer N-alkyl chain the IC50 was reduced, although cell viability became problematic.
FIGS. 8B to 8D show the results of the inhibition of NO production from LPS-stimulated BV2 cells using the assay described above.

hind paw incision pain = test: Rat hind paw incision pain model, SC dosing, von Frey testing (Example 2); type: in vivo; details: for effect on pain threshold (von Frey), day 1 and day 5 dosing: SC 3x per day for 5 days, XT-203 28 or 30 mg/kg, (+)-NTX data not shown
Experimental: Rats were housed in temperature (23+/−3° C.) and light (12 hour:12 hour, light:dark cycle; lights on at 0700) controlled rooms with standard rodent chow and water available ad libitum.
Von Frey Test for Mechanical Allodynia: Rats received at least three 60 min habituations to the test environment prior to behavioral testing. Response thresholds to calibrated light pressure stimuli applied to the plantar surface of the paws was measured using the von Frey test. […] All testing was conducted blind with respect to group assignment. The behavioral responses were used to calculate the threshold, by fitting a Gaussian integral psychometric function using a maximum-likelihood fitting method, as described in detail previously (Id.). Allodynia was assessed pre- and post-drug delivery.
Behavior testing for pain responses by von Frey testing was used to establish pain thresholds in the affected hind paw. Because dosage was 3×/day, behavior testing was performed after the first and second dose of day 1 dosing (1.1, 1.2) and after the first and second dose of day 5 dosing (5.1, 5.2). Testing sessions were performed 30 minutes after the dose was administered.

[5] = system: bone fracture pain, paw withdrawal threshold; test: Mouse bone fracture model, intraperitoneal; type: in vivo; details: for effect on PWT in mouse fracture pain model: IP, morphine 1, 2, 3, 5 mg/kg, XT-203 6, 10, 18, 30 mg/kg, (+)-NTX 6, 18, 30, 60 mg/kg, dose-dependent; for adverse effects during observation: mouse fracture model, all dose groups
Source text: Each group had n=10 mice.

SMILES | glucuronidation of parent compound (Mouse hepatocytes; mouse hepatocytes, compared with XT-203) | PWT of the ipsilateral hind-paw, 2 hours post-dosing ([1]; (+)-NTX 18 mg/kg IP alone) [g] | PWT of the ipsilateral hind-paw, 4 hours post-dosing ([1]; (+)-NTX 18 mg/kg IP alone) [g] | PWT of the ipsilateral hind-paw, 1 hour post-dosing ([1]; (+)-NTX 18 mg/kg IP alone, baseline 0.11±0.015 g) [g] | off-target hits in the screening [2] | off-target hits in the screening ([2]; listed as XT-202) | adverse effects during observation [3] | inhibition of NO production from LPS-stimulated BV2 cells [4] | IC50 ([4]; LPS (200 ng/ml), 24 h, BV-2 cells, Table 3) [µM] | IC50 ([4]; Table 6, unit inferred, footnote: Indicator of TL4 antagonism) [µM] | effect on pain threshold (von Frey), day 1 and day 5 dosing (hind paw incision pain) | effect on PWT in mouse fracture pain model [5] | adverse effects during observation [5] | Parent compound hepatocyte elimination half-life, Mouse (Mouse hepatocytes; cultured mouse hepatocytes) [min] | PWT, 2 hours after dosing ([1]; XT-203 10 mg/kg IP alone) [g] | PWT, 4 hours after dosing ([1]; XT-203 10 mg/kg IP alone) [g] | PWT, 1 hour after dosing ([1]; XT-203 10 mg/kg IP alone, 0.11±0.015 g before dosing) [g] | IC50 ([4]; Mus musculus, Microglia, Table 6, unit inferred, footnote: Indicator of TL4 antagonism) [µM] | IC50 ([4]; Mus musculus, LPS (200 ng/ml), 24 h, BV-2 cells, Table 3) [µM] | effect during day 5 testing compared with morphine 3 mg/kg (hind paw incision pain; XT-203 28 or 30 mg/kg SC 3x per day)
O=C1CC[C@]2(O)[C@@H]3Cc4ccc(O)c5c4[C@]2(CCN3CC2CC2)[C@@H]1O5 [(+)-naltrexone, reference compound] | significantly higher glucuronidation | 0.22 ± 0.050 | 0.14 ± 0.32 | 0.31 ± 0.056 | none | NONE | No significant adverse effects | good viability and inhibition | 50 to 60 | 50 to 60 | not effective | increased the PWT | No significant adverse effects |  |  |  |  |  |  | 
COc1ccc2c3c1O[C@@H]1C(F)CCC4[C@H](C2)N(CC2CC2)CC[C@]341 (some centres unmarked) [XT-203] |  |  |  |  | activity at two targets |  | No significant adverse effects | good viability and inhibition |  |  | substantial effects | increased the PWT | No significant adverse effects | 26.28 | 0.25 ± 0.059 | 0.09 ± 0.012 | 0.32 ± 0.058 | 30 | 30 to 50 | matching the response to morphine
